Results on 90 molecules are retold here after PubChem BioAssay AID463204 (Broad Institute, 2010).

Calls of active or inactive are those of the source.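 How the source made its calls: active means AC50 no more than ten times the top concentration tested, that is within one log above it; inconclusive means flat curve fit with activity between 30% and 70%, or invalid poor fit; inactive means AC50 beyond ten times the top tested dose.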

The experiment relates to S. cerevisiae Mot1-301 ts growth rescue, BacTiter-Glo ATP luminescence. As to the kind of experiment: growth rescue of Mot1-301 ts yeast, confirmation, SUMOylation pathway inhibitor project, whole organism, S. cerevisiae, Mot1-301 ts mutant, luminescence, dose retest (AID 463204).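 Further: growth at restrictive 38.5 degrees C of Mot1-301 OY566 strain; actives raise luminescence by restoring growth of the ts mutant at high temperature.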

Broadly, the AC50 is the concentration giving half of the maximal activity seen.

On to `CCOc1ccc(C(=O)Nc2ccc(CN3CCOCC3)cc2)cc1Br`, for which the AC50 was > 21 µM (inactive).

Consider `CCOC(=O)c1[nH]c2ccc(Br)cc2c1NC(=O)CCN1CCOCC1`, for which the AC50 is > 42 µM (inactive).

As for `O=C(Nc1cnn(Cc2ccc(Cl)cc2)c1)c1ccc([N+](=O)[O-])cc1`, the AC50 was > 42 µM (inactive).

As to `COCCN1C=C(C(=O)OC)C(c2cc3c(cc2Br)OCO3)C(C(=O)OC)=C1`, the AC50 was > 42 µM (inactive).

Take `CCCC(O)(c1ccc(Br)cc1)C(CN1CCOCC1)c1ccc(Cl)cc1` (stereo not given): the half-maximal activity concentration (AC50) was 5.13 µM.

For `CC(=O)Nc1ccc(CN2CCCC(CO)(Cc3cccc(Cl)c3)C2)cc1` (stereo not given), the AC50 is > 42 µM (inactive).

Consider `Cc1ccc(SC[C@H](C)CN2CC[C@H](C)CCC2=O)cc1`, for which the AC50 was > 42 µM (inactive).

On to `N#Cc1ccc(Oc2ccc(S(=O)(=O)N3CCCCC3)cn2)cc1`, for which the AC50 is > 42 µM (inactive).

Turning to `O=C(/C(=N\Nc1ccc(Br)cc1)Sc1nnnn1-c1ccccc1)c1ccccc1`, the AC50 was > 42 µM (inactive).

For the molecule `CSc1cccc(N2C(=O)C3CCCN3C2=S)c1` (stereo not given), the AC50 is > 42 µM (inactive).

In the case of `Cc1c(C2(O)CCCCC2)[nH]c2ccc(C#N)cc12`, the AC50 was 41.9 µM.

For `c1ccc(CNc2ncnc3sc4c(c23)CCC4)nc1`, the AC50 is > 42 µM (inactive).

On to `COc1ccc(N2C(=O)CCC(C(=O)NCc3cccnc3)C2c2ccc(OC)c(OC)c2)cc1` (stereo not given), for which the AC50 was > 42 µM (inactive).

As for `COc1ccc(C(=O)NC(=S)Nc2ccc(CN3CCCCC3)cc2)cc1Cl`, the AC50 was > 42 µM (inactive).

With `CNC(=O)NNC(=O)c1csc(-c2ccc(C(F)(F)F)cc2Cl)n1`, the AC50 is > 42 µM (inactive).

`CCCCCC(=O)NNC1=NCC(Cc2cccc(Cl)c2)S1` (stereo not given): the AC50 was > 42 µM (inactive).

As for `CCOC(=O)C1CCCN(C(=O)c2cc(-c3ccc(F)cc3)nc3ccccc23)C1` (stereo not given), the AC50 is > 42 µM (inactive).

Take `CCN1C(=S)N[C@@H](CCc2ccccc2)C(C(=O)OC)=C1C`: the AC50 is > 42 µM (inactive).

In the case of `COC(=O)C1CCN(S(=O)(=O)Cc2ccccc2)CC1`, the AC50 was > 42 µM (inactive).

As to `COc1ccc(C(=O)NCCSc2ccc(C)cc2)cc1`, the AC50 is > 42 µM (inactive).

On to `CC(C)[N+]1(C)[C@@H]2CC[C@@H]1CC(OC(=O)C(CO)c1ccccc1)C2` (stereo not given in full), for which the AC50 is > 42 µM (inactive).

On to `COc1ccc(Oc2c(C)oc3cc(OC(=O)N(C)C)ccc3c2=O)cc1`, for which the AC50 was > 42 µM (inactive).

For the molecule `COc1ccc2nc(SCC(=O)N(C)CC(=O)Nc3ccc(F)cc3)[nH]c2c1`, the AC50 is > 42 µM (inactive).

For `COc1ccc(/C=C(/C#N)S(=O)(=O)c2ccc(C)cc2)cc1`, the AC50 is > 21 µM (inactive).

In the case of `Cc1cc(-c2ccc(C(C)C)c(S(=O)(=O)N3CC(=O)Nc4ccccc43)c2)on1`, the AC50 is > 42 µM (inactive).

Regarding `Cc1cc(/C=N/NC(=O)c2ccsc2)c(C)n1-c1cnccn1`, the AC50 was > 42 µM (inactive).

For the molecule `CCOc1ncccc1C(=O)OCC(=O)N(CC)c1ccccc1`, the AC50 is > 42 µM (inactive).

As for `CC(=O)Nc1ccc(C(=O)NCCCOC(C)C)cc1`, the AC50 is > 42 µM (inactive).

With `CCCOC(=O)C1=C(C)NC2=C(C(=O)CCC2)C1c1cccs1` (stereo not given), the AC50 is > 42 µM (inactive).

Turning to `CCc1nn(C)c(N)c1C`, the AC50 is > 42 µM (inactive).

For the molecule `Cc1ccc(-c2nn(-c3ccccc3)cc2C(=O)N2CCN(c3ccccn3)CC2)cc1`, the AC50 was > 42 µM (inactive).

Take `Cc1ccc(NC(=O)C(CC(C)C)NC(=O)C2CCC(C)CC2)nc1` (stereo not given): the AC50 was > 42 µM (inactive).

As to `CC1CCCN(C(=O)Cc2ccc(F)cc2)C1` (stereo not given), the AC50 is > 42 µM (inactive).

In the case of `O=C(C1CCCN(S(=O)(=O)c2cnc[nH]2)C1)N1CCN(c2ccc(Cl)cc2)CC1` (stereo not given), the AC50 is > 42 µM (inactive).

For `CC(=O)N1CCC2(CC1)CC(=O)c1cc(OCC(=O)N3CCCC3)ccc1O2`, the AC50 was > 42 µM (inactive).

For `O=[N+]([O-])c1cccc(-c2nc3ccc([N+](=O)[O-])cc3[nH]2)c1`, the AC50 is > 42 µM (inactive).

As for `COc1ccc(-c2nnc(-c3cc4c(ccc5ccccc54)oc3=O)o2)cc1`, the AC50 was > 42 µM (inactive).

For the molecule `Cc1ccnc(NC(=O)CNC(=O)c2ccc(Br)o2)c1`, the AC50 is > 42 µM (inactive).

In the case of `CCc1nnc2n1N=C(c1ccc(Cl)cc1)CS2`, the AC50 is > 42 µM (inactive).

Consider `Cc1cnc(NC(=O)CSc2nc3ccccc3s2)s1`, for which the AC50 was > 42 µM (inactive).

With `CCCc1cc(=S)n2c([nH]c3ccccc32)c1C#N`, the AC50 was > 42 µM (inactive).

In the case of `CCOC(=O)c1ccc(NC(=O)c2nc[nH]c2C(=O)N2CCc3ccccc3C2)cc1`, the AC50 was > 42 µM (inactive).

`Cc1ccc(NC(=O)CN2C(=O)COc3ccc(S(=O)(=O)N4CCOCC4)cc32)cc1F`: the AC50 is > 42 µM (inactive).

As for `O=C(Nc1cccc(N=Cc2cc(Br)cc(Br)c2O)c1)c1ccco1`, the AC50 is 2.81 µM.

Turning to `Cc1cc(C)cc(OCC(=O)NC2CCCc3ccccc32)c1` (stereo not given), the AC50 was > 42 µM (inactive).

Regarding `COc1ccc(Cn2nnnc2CN2CCN(c3ccc(OC)cc3)CC2)cc1`, the AC50 was > 42 µM (inactive).

With `COc1ccc(S(=O)(=O)n2nc(-c3ccc(Cl)cc3)cc2N)cc1OC`, the AC50 is > 42 µM (inactive).

For the molecule `CCN(C(=O)Cn1c(=O)oc2ccccc21)c1cccc(C)c1`, the AC50 was > 42 µM (inactive).

Consider `c1ccc(CCCc2nc(-c3cccnc3)no2)cc1`, for which the AC50 was > 42 µM (inactive).

Regarding `Cc1sc2ncn(C(C)C(=O)OC3CCCCC3)c(=O)c2c1C` (stereo not given), the AC50 is > 42 µM (inactive).

Regarding `N#Cc1cc2c(nc1SC1CCCCC1O)CCCC2` (stereo not given), the AC50 is > 42 µM (inactive).

`Cn1c(O)c(C(c2ccccn2)c2c(O)n(C)c(=S)n(C)c2=O)c(=O)n(C)c1=S`: the AC50 is > 42 µM (inactive).

`CCS(=O)(=O)N1CCCC(C(=O)NCc2cccnc2)C1` (stereo not given): the AC50 was > 42 µM (inactive).

Consider `Cc1cc2nc(CCl)cc(=O)n2[nH]1`, for which the AC50 was > 42 µM (inactive).

In the case of `CCOP(=O)(Cc1cc(C(=O)CC)c(C)o1)OCC`, the AC50 is > 42 µM (inactive).

For the molecule `Cc1ccc(Oc2ccccc2NC(=O)C2=COCCO2)cc1`, the AC50 was > 42 µM (inactive).

For `CC(=O)c1c(Nc2cccc(F)c2)oc(C)cc1=O`, the AC50 is > 42 µM (inactive).

`COc1ccccc1OCCCn1cc(C#N)c2ccccc21`: the AC50 was > 42 µM (inactive).

Regarding `COc1ccc(S(=O)(=O)NC(C)C(=O)NCc2ccccn2)cc1Cl` (stereo not given), the AC50 is > 42 µM (inactive).

Take `CCOC(=O)Cn1c(C)c(Br)c(=O)c2cccc(C)c21`: the AC50 is > 42 µM (inactive).

Regarding `COc1ccc(S(=O)(=O)NCC(=O)N(CC(=O)NCc2ccco2)Cc2ccccc2)cc1`, the AC50 was > 42 µM (inactive).

For the molecule `C=C(C)Cn1c(SCC(=O)N/N=C/c2ccccc2OCC(=O)O)nnc1-c1ccc(Br)cc1`, the AC50 was > 42 µM (inactive).

With `N=c1sccn1CC(=O)Nc1cccc(S(N)(=O)=O)c1`, the AC50 was > 42 µM (inactive).

`CC1CN(CCCOc2ccc([N+](=O)[O-])cc2)CC(C)O1` (stereo not given): the AC50 was > 42 µM (inactive).

Regarding `CC1=C(C#N)S(=O)(=O)C(C#N)C(c2ccccc2)C1` (stereo not given), the AC50 is > 42 µM (inactive).

With `CCCOc1ccccc1C1NC(=O)NC(C)=C1C(=O)OCCOCC` (stereo not given), the AC50 was > 42 µM (inactive).

Turning to `Cc1ccc(NC(=O)N[C@H](C(=O)O)C(C)C)c(C)c1`, the AC50 was > 42 µM (inactive).

As to `COC(=O)c1ccc(CN2CCN(C3CCCCC3)C(CCO)C2)cc1` (stereo not given), the AC50 was > 42 µM (inactive).

As for `Cc1ccc(-c2cc(C(=O)O)c3ccccc3n2)s1`, the AC50 was > 42 µM (inactive).

In the case of `COC(=O)CNC(=O)CSc1ccccn1`, the AC50 is > 42 µM (inactive).

Take `COc1cccc(/C=C2/C(=O)NN(c3ccc(Br)cc3)C2=O)c1O`: the AC50 was > 42 µM (inactive).

As for `O=C(COC(=O)CSc1ccc([N+](=O)[O-])cc1)NC1CCCCCCC1`, the AC50 was > 42 µM (inactive).

On to `COc1cccc(CN(C)C(=O)C2CCC(=O)N(Cc3cccc(F)c3)C2)c1` (stereo not given), for which the AC50 is > 42 µM (inactive).

As to `Cc1nc(N)c(Cc2ccccc2F)c(N)n1`, the AC50 is > 42 µM (inactive).

In the case of `CCC(C)(C(=O)NC1CCCC1)N(C(=O)c1ccccn1)c1ccc(C)cc1` (stereo not given), the AC50 was > 42 µM (inactive).

As to `CC(C(=O)N1CCN(C(=O)c2ccco2)CC1)n1sc2ccccc2c1=O` (stereo not given), the AC50 is > 42 µM (inactive).

`CCCCCCNc1c(C(=O)OCC)c(=O)[nH]c2ccccc12`: the AC50 is > 42 µM (inactive).

On to `Cc1onc(-c2ccccc2)c1C(=O)N/N=C/C=C/c1ccccc1`, for which the AC50 is > 42 µM (inactive).

Regarding `CCc1ccc(NC(=S)N(Cc2cccc(Br)c2)CC2CCC(C(=O)O)CC2)cc1` (stereo not given), the AC50 was > 42 µM (inactive).

Take `COc1ccc2nc(NC(=O)c3cc(S(=O)(=O)N4CCOCC4)ccc3C)sc2c1`: the AC50 was > 42 µM (inactive).

Turning to `CNC(=O)COC(=O)c1cc(-c2ccco2)nc2ccccc12`, the AC50 is > 42 µM (inactive).

For `CC(=O)/C=C/n1c(=S)oc2ccccc21`, the AC50 was 11.3 µM.

As for `Cc1cc(C)c(NC(=O)CNC(=O)c2cc([N+](=O)[O-])ccc2N2CCOCC2)c(C)c1`, the AC50 is > 42 µM (inactive).

For `CN(C)CCN(Cc1ccc(Cl)cc1)c1ccccn1`, the AC50 was > 42 µM (inactive).

`O=C(COc1ccc(Cl)cc1)NCCCNC(=O)c1ccccn1`: the AC50 is > 42 µM (inactive).

For `O=C(O)C1CCCCC1C(=O)Nc1ccc(S(=O)(=O)N2CCCC2)cc1` (stereo not given), the AC50 was > 42 µM (inactive).

Take `O=[N+]([O-])c1ccc(-c2csc(N3CCc4ccccc4C3)n2)cc1`: the AC50 was > 42 µM (inactive).

On to `COC(=O)c1ccc2[nH]c(C(C)(C)O)c(C)c2c1`, for which the AC50 is > 42 µM (inactive).

For `CCCCOc1ccc(C(=O)Nc2ccc(N3CCN(C)CC3)cc2)cc1`, the AC50 is > 42 µM (inactive).

In the case of `Cc1cc(C(=O)OCC(=O)Nc2cccc(S(N)(=O)=O)c2)c2ccccc2n1`, the AC50 is > 42 µM (inactive).
